From publication PMC11946789, “Two Amino Acid Substitutions Improve the Pharmacological Profile of the Snake Venom Peptide Mambalgin” (Toxins, 2025)
Where two headings read alike, the source gives them in different places. Where no end group is shown, it is not given here.

Experiments:
rASIC1b = settings: literature, cited from earlier work
rASIC1a/3 = settings: reported in literature; cited from earlier work
[1] = biological target: rat ASIC1a channel, homomeric (rat) (UniProt P55926)
[2] = biological target: rat ASIC1a channel, homomeric (rat) (UniProt P55926); remark: listed apart in the source
[3] = biological target: rat ASIC1b channel, homomeric (rat) (UniProt P55926)
Chain of rat ASIC1b channel, homomeric (rat) (P55926 other isoform, or with tags, fused parts or gaps): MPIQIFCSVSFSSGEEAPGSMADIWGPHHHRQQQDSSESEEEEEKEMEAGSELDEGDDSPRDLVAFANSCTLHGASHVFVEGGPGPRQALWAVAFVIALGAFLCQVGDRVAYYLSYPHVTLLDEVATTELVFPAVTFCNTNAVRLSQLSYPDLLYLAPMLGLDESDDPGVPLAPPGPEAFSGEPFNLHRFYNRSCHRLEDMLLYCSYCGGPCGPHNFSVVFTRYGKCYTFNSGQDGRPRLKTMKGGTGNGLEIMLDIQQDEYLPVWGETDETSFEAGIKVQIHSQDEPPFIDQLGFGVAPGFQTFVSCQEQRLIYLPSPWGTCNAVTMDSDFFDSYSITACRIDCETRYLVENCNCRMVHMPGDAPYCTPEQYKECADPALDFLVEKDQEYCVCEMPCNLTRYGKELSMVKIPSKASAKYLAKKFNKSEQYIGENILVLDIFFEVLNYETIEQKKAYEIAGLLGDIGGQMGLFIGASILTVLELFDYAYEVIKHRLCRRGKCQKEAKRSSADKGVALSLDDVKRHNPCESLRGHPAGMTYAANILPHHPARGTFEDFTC

Chain of rat ASIC1a channel, homomeric (rat) (P55926 whole entry): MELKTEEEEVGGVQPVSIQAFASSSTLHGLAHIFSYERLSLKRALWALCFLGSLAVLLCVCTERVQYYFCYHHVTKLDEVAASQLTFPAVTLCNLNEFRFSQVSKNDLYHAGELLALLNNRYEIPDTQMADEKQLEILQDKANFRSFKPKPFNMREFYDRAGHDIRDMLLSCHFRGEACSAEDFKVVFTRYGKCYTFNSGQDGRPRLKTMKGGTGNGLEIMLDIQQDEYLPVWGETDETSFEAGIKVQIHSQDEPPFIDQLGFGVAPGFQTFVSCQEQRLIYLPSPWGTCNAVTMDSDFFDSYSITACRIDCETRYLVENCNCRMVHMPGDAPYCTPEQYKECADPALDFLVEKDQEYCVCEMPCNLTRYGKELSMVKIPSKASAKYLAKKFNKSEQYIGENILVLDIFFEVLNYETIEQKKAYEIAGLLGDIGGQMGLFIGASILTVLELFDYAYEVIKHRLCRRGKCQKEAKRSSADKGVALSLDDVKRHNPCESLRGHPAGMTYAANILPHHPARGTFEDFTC

Substance	IC50 (rASIC1b; ref 21) [nM]	IC50 (rASIC1b; ref 27) [nM]	effect on rASIC1a/3 (rASIC1a/3)	IC50 of inhibition of pH 5.5-evoked currents of homomeric rASIC1a in Xenopus oocytes (TEVC; peptide applied for 30 s at pH 7.4) [1] [nM]	IC50 of inhibition of pH 6.7-evoked currents of homomeric rASIC1a in Xenopus oocytes (TEVC; peptide applied for 30 s at pH 7.4) [2] [nM]	IC50 of inhibition of pH 5.5-evoked currents of homomeric rASIC1b in Xenopus oocytes (TEVC; peptide applied for 30 s at pH 7.4) [3] [nM]
Mamb-1 (LKCYQHGKVVTCHRDMKFCYHNTGMPFRNLKLILQGCSSSCSETENNKCCSTDRCNK; ends and bridges not checked; cysteine pairing not given here; UniProt P0DKR6 22-78, looked up)	192	39	no effect			
mambalgin (Mamb), wild-type peptide (from UniProt P0DKS3 1-57)				110	86	119
